The numbers were not newly measured in paper PMC6161602, “Synthesis and characterisation of (Z)-styrylbenzene derivatives as potential selective anticancer agents” (Journal of Enzyme Inhibition and Medicinal Chemistry, 2018), which cites them from elsewhere.

A value given as a limit tells only on which side of the number the result lay.

One data set relates to L-02 cells. Also noted: method as in PMID 27887843. The settings on record: L-02, printed in Figure 1, previous experiment ref 2; cited from earlier work.
In the next data set the test system is HeLa cells. Also noted: method as in PMID 27887843. The settings on record: printed in Figure 1, previous experiment ref 2; cited from earlier work.

Broadly, the IC50 is the point on the concentration scale where inhibition reaches its midpoint. In the case of `CCOc1ccc(/C=C(\C#N)c2cc(OC)cc(OC)c2)cc1` [Compound 3], the IC50 in the data set with L-02 cells was over 100 µM; in the data set on HeLa cells, 7.7 µM.
